Experimental data published in patent publication US20070128217A1 (priority 2003, published 2007).

Tests used:
[1] = system: control sera (pooled serum of ten healthy LUMC hospital workers; commercial negative donor pooled serum from the Dutch bloodbank); format: binding, human; parameters: Binding of Control serum LUMC to linear peptides / Binding of Control serum Blood-bank to linear peptides / Binding of Control serum LUMC to looped peptides / Binding of Control Serum Blood-Bank to Looped peptides / Binding of Control serum LUMC to linear peptides of the protein M of SARS-CoV Urbani / Binding of Control serum Blood-bank to linear peptides of the protein M of SARS-CoV Urbani / Binding of Control serum LUMC to looped peptides of the protein M of SARS-CoV Urbani / Binding of Control Serum Blood-Bank to Looped peptides of the protein M of SARS-CoV Urbani: unit not given here
[2] = system: antibodies in sera from SARS patients (sera 1a, 1b, 2, 6, 37, 62, London, SARS-yellow, SARS-green); format: binding, human; parameters: Binding of serum 6 to linear peptides of protein X1 of SARS-CoV Urbani / Binding of serum 37 to linear peptides of protein X1 of SARS-CoV Urbani / Binding of serum 6 to looped/cyclic peptide (PEPSCAN-ELISA) / Binding of serum 37 to looped/cyclic peptide (PEPSCAN-ELISA) / Binding of serum 37 to looped/cyclic peptides of protein X1 of SARS-CoV Urbani / Binding of serum 6 to linear peptides of protein X2 / Binding of serum 37 to linear peptides of protein X2 / Binding of serum 37 to looped/cyclic peptides of protein X2 of SARS-CoV Urbani / Binding of serum 6 to linear peptides of protein M of SARS-CoV Urbani / Binding of serum 37 to linear peptides of protein M of SARS-CoV Urbani / Binding of serum 6 to looped/cyclic peptides of protein M of SARS-CoV Urbani / Binding of serum 37 to looped/cyclic peptides of protein M of SARS-CoV Urbani / Binding of serum 6 to linear peptides of protein X3 of SARS-CoV Urbani / Binding of serum 37 to linear peptides of protein X3 of SARS-CoV Urbani / Binding of serum 37 to looped/cyclic peptides of protein X3 of SARS-CoV Urbani / Binding of serum 6 to linear peptides of protein X4 of SARS-CoV Urbani / Binding of serum 37 to linear peptides of protein X4 of SARS-CoV Urbani / Binding of serum 37 to looped/cyclic peptides of protein X4 of SARS-CoV Urbani / Binding of serum 6 to linear peptides of protein X5 of SARS-CoV Urbani / Binding of serum 37 to linear peptides of protein X5 of SARS-CoV Urbani / Binding of serum 37 to looped/cyclic peptides of protein X5 of SARS-CoV Urbani / Binding of serum 6 to linear peptides of protein N of SARS-CoV Urbani / Binding of serum 37 to linear peptides of protein N of SARS-CoV Urbani / Binding of serum 6 to linear peptide (PEPSCAN-ELISA) / Binding of serum 1a to looped/cyclic peptides of protein N of SARS-CoV Urbani / Binding of serum 1b to looped/cyclic peptides of protein N of SARS-CoV Urbani / Binding of serum 2 to looped/cyclic peptides of protein N of SARS-CoV Urbani / Binding of serum 6 to looped/cyclic peptides of protein N of SARS-CoV Urbani / Binding of serum 37 to looped/cyclic peptides of protein N of SARS-CoV Urbani / Binding of serum 62 to looped/cyclic peptides of protein N of SARS-CoV Urbani / Binding of serum London to looped/cyclic peptides of protein N of SARS-CoV Urbani / Binding of serum SARS-green to looped/cyclic peptides of protein N of SARS-CoV Urbani: unit not given here
[3] = system: rabbit serum obtained by immunizing a rabbit with the SARS-CoV strain Frankfurt 1; format: binding; parameters: Binding of a rabbit serum to linear peptides / Binding of a rabbit serum to looped peptides / Rabbit serum linear peptides / Rabbit serum looped peptides / Binding of a rabbit serum to linear peptides of protein N of SARS-CoV Urbani (Rabbit serum linear peptides) / Binding of a rabbit serum to looped/cyclic peptides of protein N of SARS-CoV Urbani (Rabbit serum looped peptides): unit not given here

QWIQFMMSRRRLLAC
Binding of Control Serum Blood-Bank to Looped peptides [1]: 0.3 | Binding of Control serum Blood-bank to linear peptides [1]: 0.8 | Binding of Control serum LUMC to linear peptides [1]: 0.5 | Binding of Control serum LUMC to looped peptides [1]: 0.4 | Binding of serum 1a to linear peptides of protein X2 [2]: 0.7 | Binding of serum 1a to looped/cyclic peptides of protein X2 of SARS-CoV Urbani [2]: 0.5 | Binding of serum 1b to linear peptides of protein X2 [2]: 0.5 | Binding of serum 1b to looped/cyclic peptides of protein X2 of SARS-CoV Urbani [2]: 0.4 | Binding of serum 2 to linear peptides of protein X2 [2]: 0.5 | Binding of serum 2 to looped/cyclic peptides of protein X2 of SARS-CoV Urbani [2]: 0.3 | Binding of serum 6 to linear peptides of protein X2 [2]: 0.7 | Binding of serum 6 to looped/cyclic peptides of protein X2 of SARS-CoV Urbani [2]: 0.3 | Binding of serum 37 to linear peptides of protein X2 [2]: 0.6 | Binding of serum 37 to looped/cyclic peptides of protein X2 of SARS-CoV Urbani [2]: 0.5 | Binding of serum 62 to linear peptides of protein X2 [2]: 0.6 | Binding of serum 62 to looped/cyclic peptides of protein X2 of SARS-CoV Urbani [2]: 0.5 | Binding of serum London to linear peptides of protein X2 [2]: 0.5 | Binding of serum London to looped/cyclic peptides of protein X2 of SARS-CoV Urbani [2]: 0.2 | Binding of serum SARS-green to linear peptides of protein X2 [2]: 0.5 | Binding of serum SARS-green to looped/cyclic peptides of protein X2 of SARS-CoV Urbani [2]: 0.4 | Binding of serum SARS-yellow to linear peptides of protein X2 [2]: 0.6 | Binding of serum SARS-yellow to looped/cyclic peptides of protein X2 of SARS-CoV Urbani [2]: 0.4 | Binding of a rabbit serum to linear peptides [3]: 1.0 | Binding of a rabbit serum to looped peptides [3]: 2.0

LCWKCKSKNPLLYDA
Binding of Control Serum Blood-Bank to Looped peptides [1]: 0.8 | Binding of Control serum Blood-bank to linear peptides [1]: 0.7 | Binding of Control serum LUMC to linear peptides [1]: 0.7 | Binding of Control serum LUMC to looped peptides [1]: 0.8 | Binding of serum 1a to looped/cyclic peptide (PEPSCAN-ELISA) [2]: 0.8 | Binding of serum 1b to looped/cyclic peptide (PEPSCAN-ELISA) [2]: 0.5 | Binding of serum 2 to looped/cyclic peptide (PEPSCAN-ELISA) [2]: 0.7 | Binding of serum 6 to looped/cyclic peptide (PEPSCAN-ELISA) [2]: 0.8 | Binding of serum 37 to looped/cyclic peptide (PEPSCAN-ELISA) [2]: 0.7 | Binding of serum 62 to looped/cyclic peptide (PEPSCAN-ELISA) [2]: 0.8 | Binding of serum London to looped/cyclic peptide (PEPSCAN-ELISA) [2]: 0.3 | Binding of serum SARS-green to looped/cyclic peptide (PEPSCAN-ELISA) [2]: 0.3 | Binding of serum SARS-yellow to looped/cyclic peptide (PEPSCAN-ELISA) [2]: 0.7 | Recognition of the peptide by sera of SARS-CoV infected individuals, and form (linear, looped/cyclic) in which it is recognized [2]: recognized in linear form | Binding of a rabbit serum to linear peptides [3]: 0.3 | Binding of a rabbit serum to looped peptides [3]: 0.8

VTRPLMESELVIGAV
Binding of Control Serum Blood-Bank to Looped peptides of the protein M of SARS-CoV Urbani [1]: 0.9 | Binding of Control serum Blood-bank to linear peptides of the protein M of SARS-CoV Urbani [1]: 0.6 | Binding of Control serum LUMC to linear peptides of the protein M of SARS-CoV Urbani [1]: 0.4 | Binding of Control serum LUMC to looped peptides of the protein M of SARS-CoV Urbani [1]: 1.0 | Binding of serum 1a to linear peptides of protein M of SARS-CoV Urbani [2]: 0.8 | Binding of serum 1b to linear peptides of protein M of SARS-CoV Urbani [2]: 0.6 | Binding of serum 2 to linear peptides of protein M of SARS-CoV Urbani [2]: 0.9 | Binding of serum 6 to linear peptides of protein M of SARS-CoV Urbani [2]: 0.2 | Binding of serum 37 to linear peptides of protein M of SARS-CoV Urbani [2]: 1.0 | Binding of serum 62 to linear peptides of protein M of SARS-CoV Urbani [2]: 0.9 | Binding of serum London to linear peptides of protein M of SARS-CoV Urbani [2]: 0.3 | Binding of serum SARS-green to linear peptides of protein M of SARS-CoV Urbani [2]: 0.3 | Binding of serum SARS-yellow to linear peptides of protein M of SARS-CoV Urbani [2]: 0.1 | Recognition of the peptide by sera of SARS-CoV infected individuals, and form (linear, looped/cyclic) in which it is recognized [2]: recognized in looped/cyclic form | Rabbit serum linear peptides [3]: 0.4 | Rabbit serum looped peptides [3]: 0.2
